Measurements from the kinase profiling compilation of Christmann-Franck et al. (2016).

What was measured:
Test in all cases: radiometric filter-binding kinase assay
BRSK1 (human) = BRSK1 (human) (UniProt Q8TDC3); settings: compound 10.0 µM
BRSK2 (human) = BRSK2 (human) (UniProt Q8IWQ3)
CAMKK2 (human) = CAMKK2 (human) (UniProt Q96RR4)
DAPK1 (human) = DAPK1 (human) (UniProt P53355); settings: compound 10.0 µM
DYRK1A (human) = DYRK1A (human) (UniProt Q13627)
EEF2K (human) = EEF2K (human) (UniProt O00418)
EPHB4 (human) = EPHB4 (human) (UniProt P54760); settings: compound 10.0 µM
ERBB4 (human) = ERBB4 (human) (UniProt Q15303); settings: compound 10.0 µM
FGFR1 (human) = FGFR1 (human) (UniProt P11362); settings: compound 10.0 µM
GSK3B (human) = GSK3B (human) (UniProt P49841)
HIPK3 (human) = HIPK3 (human) (UniProt Q9H422)
IGF1R (human) = IGF1R (human) (UniProt P08069); settings: compound 10.0 µM
IKBKE (human) = IKBKE (human) (UniProt Q14164); settings: compound 10.0 µM
MAP2K2 (human) = MAP2K2 (human) (UniProt P36507); settings: compound 10.0 µM
MAP2K6 (human) = MAP2K6 (human) (UniProt P52564); settings: compound 10.0 µM
MAP3K5 (human) = MAP3K5 (human) (UniProt Q99683); settings: compound 10.0 µM
MAPK12 (human) = MAPK12 (human) (UniProt P53778)
MAPK12 (human), sequence (P53778 whole entry, looked up): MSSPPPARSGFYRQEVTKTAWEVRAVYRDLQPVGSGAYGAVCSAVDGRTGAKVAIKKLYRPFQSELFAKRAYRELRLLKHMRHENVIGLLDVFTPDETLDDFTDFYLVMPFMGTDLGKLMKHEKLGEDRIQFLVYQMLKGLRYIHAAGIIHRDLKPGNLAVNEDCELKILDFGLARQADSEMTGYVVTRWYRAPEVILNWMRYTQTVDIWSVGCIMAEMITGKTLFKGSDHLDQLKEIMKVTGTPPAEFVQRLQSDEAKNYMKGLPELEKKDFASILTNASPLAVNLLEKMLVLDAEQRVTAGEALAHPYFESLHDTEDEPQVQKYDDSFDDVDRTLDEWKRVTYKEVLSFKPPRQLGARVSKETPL

MAPK13 (human) = MAPK13 (human) (UniProt O15264)
MAPK3 (human) = MAPK3 (human) (UniProt P27361)
MAPK3 (human), sequence (P27361 whole entry, looked up): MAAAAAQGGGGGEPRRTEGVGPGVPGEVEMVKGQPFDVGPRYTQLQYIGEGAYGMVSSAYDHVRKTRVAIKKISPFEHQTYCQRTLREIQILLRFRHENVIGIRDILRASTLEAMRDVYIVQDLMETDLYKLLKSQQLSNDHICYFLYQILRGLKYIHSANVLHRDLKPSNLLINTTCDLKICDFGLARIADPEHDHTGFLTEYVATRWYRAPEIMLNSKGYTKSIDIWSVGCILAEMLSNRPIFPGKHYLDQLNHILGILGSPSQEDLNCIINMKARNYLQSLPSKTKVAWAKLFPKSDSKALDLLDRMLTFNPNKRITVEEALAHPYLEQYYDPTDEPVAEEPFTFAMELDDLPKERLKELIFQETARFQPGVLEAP

MAPK9 (human) = MAPK9 (human) (UniProt P45984)
MAPK9 (human), sequence (P45984 whole entry, looked up): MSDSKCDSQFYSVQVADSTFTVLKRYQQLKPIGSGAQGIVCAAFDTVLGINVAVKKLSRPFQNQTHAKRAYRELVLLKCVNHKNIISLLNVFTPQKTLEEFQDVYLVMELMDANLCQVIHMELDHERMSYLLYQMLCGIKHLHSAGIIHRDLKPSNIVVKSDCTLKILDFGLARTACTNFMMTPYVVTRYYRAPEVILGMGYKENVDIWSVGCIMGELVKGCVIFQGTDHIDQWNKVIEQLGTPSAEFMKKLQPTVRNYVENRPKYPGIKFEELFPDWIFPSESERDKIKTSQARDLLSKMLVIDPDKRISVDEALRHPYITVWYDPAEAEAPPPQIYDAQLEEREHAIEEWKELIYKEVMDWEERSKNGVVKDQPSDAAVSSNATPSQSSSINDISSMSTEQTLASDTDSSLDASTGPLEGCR

MAPKAPK2 (human) = MAPKAPK2 (human) (UniProt P49137)
MAPKAPK2 (human), sequence (P49137 whole entry, looked up): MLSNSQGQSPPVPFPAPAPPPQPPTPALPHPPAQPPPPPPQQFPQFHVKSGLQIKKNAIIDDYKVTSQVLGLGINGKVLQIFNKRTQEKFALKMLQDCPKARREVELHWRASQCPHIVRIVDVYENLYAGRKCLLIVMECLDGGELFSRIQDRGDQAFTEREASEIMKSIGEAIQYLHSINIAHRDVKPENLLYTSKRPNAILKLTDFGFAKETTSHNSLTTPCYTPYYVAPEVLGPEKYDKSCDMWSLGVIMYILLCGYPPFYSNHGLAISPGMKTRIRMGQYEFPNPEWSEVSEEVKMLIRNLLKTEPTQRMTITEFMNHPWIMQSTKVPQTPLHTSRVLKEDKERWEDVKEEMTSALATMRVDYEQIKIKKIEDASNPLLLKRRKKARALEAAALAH

MAPKAPK5 (human) = MAPKAPK5 (human) (UniProt Q8IW41)
MAPKAPK5 (human), sequence (Q8IW41 whole entry, looked up): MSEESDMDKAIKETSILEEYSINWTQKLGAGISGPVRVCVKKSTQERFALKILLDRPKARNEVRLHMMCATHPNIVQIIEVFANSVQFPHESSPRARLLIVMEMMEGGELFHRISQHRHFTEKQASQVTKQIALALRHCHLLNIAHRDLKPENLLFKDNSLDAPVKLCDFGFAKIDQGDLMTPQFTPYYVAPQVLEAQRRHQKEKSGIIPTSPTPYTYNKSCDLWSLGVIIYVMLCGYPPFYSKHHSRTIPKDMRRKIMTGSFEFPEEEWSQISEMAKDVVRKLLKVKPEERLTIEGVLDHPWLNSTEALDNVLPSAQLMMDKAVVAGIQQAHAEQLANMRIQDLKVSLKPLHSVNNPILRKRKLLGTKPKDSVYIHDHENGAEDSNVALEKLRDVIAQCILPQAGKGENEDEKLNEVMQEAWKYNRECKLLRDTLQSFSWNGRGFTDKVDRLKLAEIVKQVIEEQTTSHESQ

MARK1 (human) = MARK1 (human) (UniProt Q9P0L2); settings: compound 10.0 µM
MELK (human) = MELK (human) (UniProt Q14680)
MKNK1 (human) = MKNK1 (human) (UniProt Q9BUB5)
MKNK1 (human), sequence (Q9BUB5 whole entry, looked up): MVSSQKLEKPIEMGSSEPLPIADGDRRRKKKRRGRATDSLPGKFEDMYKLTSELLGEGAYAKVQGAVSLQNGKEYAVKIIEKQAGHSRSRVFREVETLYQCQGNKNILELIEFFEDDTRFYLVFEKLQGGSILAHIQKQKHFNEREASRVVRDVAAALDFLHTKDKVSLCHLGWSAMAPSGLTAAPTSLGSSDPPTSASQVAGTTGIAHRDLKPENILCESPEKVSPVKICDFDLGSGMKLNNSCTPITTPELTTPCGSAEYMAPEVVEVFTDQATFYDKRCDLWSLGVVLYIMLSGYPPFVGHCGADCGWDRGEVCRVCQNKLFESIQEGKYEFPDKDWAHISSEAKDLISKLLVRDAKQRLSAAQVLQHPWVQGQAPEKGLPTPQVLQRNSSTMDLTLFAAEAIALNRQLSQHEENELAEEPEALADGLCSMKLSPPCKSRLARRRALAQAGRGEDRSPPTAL

PAK7 (human) = PAK7 (human) (UniProt Q9P286)
PHKG1 (human) = PHKG1 (human) (UniProt Q16816)
PHKG1 (human), sequence (Q16816 whole entry, looked up): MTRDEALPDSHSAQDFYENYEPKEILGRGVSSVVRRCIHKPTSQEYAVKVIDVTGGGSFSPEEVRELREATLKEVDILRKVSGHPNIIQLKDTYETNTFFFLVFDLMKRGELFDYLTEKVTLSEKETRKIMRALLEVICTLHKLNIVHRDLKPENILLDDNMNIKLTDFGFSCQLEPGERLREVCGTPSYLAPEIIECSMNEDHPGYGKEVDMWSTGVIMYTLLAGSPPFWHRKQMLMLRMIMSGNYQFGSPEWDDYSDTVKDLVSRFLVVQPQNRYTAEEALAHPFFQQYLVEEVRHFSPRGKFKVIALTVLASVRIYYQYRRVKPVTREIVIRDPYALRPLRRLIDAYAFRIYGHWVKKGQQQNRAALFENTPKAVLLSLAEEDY

PIM1 (human) = PIM1 (human) (UniProt P11309)
PIM2 (human) = PIM2 (human) (UniProt Q9P1W9)
PIM3 (human) = PIM3 (human) (UniProt Q86V86)
PRKAA1 or PRKAA2 (rat) = settings: accession and sequence are those of the human protein
PRKACA (human) = PRKACA (human) (UniProt P17612)
PRKCZ (human) = PRKCZ (human) (UniProt Q05513)
[1] = system: SGK1 (human), O00141 [S422D]
SGK1 (human), O00141 [S422D], sequence (O00141 whole entry S422D, looked up): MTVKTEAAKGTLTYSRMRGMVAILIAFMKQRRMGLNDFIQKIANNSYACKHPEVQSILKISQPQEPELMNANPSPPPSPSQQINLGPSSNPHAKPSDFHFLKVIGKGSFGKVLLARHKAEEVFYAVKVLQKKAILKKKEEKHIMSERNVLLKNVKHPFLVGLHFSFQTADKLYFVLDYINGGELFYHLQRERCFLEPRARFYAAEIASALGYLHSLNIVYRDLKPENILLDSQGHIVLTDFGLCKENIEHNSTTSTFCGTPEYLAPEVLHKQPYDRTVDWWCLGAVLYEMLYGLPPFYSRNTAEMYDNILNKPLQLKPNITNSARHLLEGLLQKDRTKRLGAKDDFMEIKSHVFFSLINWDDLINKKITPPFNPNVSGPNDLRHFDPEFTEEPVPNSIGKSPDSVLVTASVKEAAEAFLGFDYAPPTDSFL

STK3 (human) = STK3 (human) (UniProt Q13188)
STK3 (human), sequence (Q13188 whole entry, looked up): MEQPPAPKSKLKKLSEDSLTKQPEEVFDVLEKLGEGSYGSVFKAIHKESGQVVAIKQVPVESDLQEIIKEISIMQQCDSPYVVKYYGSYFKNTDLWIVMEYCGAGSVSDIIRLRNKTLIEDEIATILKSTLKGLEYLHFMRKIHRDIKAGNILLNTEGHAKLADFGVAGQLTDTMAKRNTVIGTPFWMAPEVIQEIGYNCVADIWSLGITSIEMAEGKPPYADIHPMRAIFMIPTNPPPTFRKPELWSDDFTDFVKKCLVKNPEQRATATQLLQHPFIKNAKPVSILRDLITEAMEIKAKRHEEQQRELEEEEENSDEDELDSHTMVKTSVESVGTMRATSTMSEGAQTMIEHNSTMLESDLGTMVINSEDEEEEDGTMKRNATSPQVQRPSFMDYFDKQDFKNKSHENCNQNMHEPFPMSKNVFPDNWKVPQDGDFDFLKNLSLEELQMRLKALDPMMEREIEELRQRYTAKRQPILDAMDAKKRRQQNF

SYK (human) = SYK (human) (UniProt P43405); settings: compound 10.0 µM

BRSK2 (human), sequence (Q8IWQ3 whole entry, looked up): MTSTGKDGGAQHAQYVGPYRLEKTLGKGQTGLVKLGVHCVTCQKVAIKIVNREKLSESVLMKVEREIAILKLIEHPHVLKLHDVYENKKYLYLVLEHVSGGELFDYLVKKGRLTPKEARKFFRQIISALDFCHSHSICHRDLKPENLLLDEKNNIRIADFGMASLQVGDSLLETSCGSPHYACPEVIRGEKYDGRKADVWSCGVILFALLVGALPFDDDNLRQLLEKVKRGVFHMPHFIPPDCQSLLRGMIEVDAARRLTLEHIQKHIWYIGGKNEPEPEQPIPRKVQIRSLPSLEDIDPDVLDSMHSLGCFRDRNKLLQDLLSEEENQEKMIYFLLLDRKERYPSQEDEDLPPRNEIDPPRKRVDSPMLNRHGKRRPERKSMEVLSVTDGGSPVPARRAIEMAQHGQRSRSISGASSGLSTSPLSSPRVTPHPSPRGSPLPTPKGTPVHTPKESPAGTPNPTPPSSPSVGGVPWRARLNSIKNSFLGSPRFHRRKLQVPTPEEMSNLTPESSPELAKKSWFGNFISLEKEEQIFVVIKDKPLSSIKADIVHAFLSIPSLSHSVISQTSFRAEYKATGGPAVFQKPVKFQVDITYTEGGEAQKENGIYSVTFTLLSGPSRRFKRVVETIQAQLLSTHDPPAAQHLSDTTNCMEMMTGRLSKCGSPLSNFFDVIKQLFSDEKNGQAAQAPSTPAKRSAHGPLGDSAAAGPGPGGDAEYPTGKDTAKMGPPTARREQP

- residual activity (BRSK1 (human)): 56%
- residual activity (BRSK2 (human); compound 1.0 µM): 54%
- residual activity (BRSK2 (human); compound 10.0 µM): 50%
- residual activity (BRSK2 (human); compound 50.0 µM): 13%
- residual activity (CAMKK2 (human); compound 1.0 µM): 107%
- residual activity (CAMKK2 (human); compound 10.0 µM): 74%
- residual activity (CAMKK2 (human); compound 50.0 µM): 28%
- residual activity (DAPK1 (human)): 62%
- residual activity (DYRK1A (human); compound 1.0 µM): 94%
- residual activity (DYRK1A (human); compound 10.0 µM): 61%
- residual activity (DYRK1A (human); compound 50.0 µM): 17%
- residual activity (EEF2K (human); compound 1.0 µM): 95%
- residual activity (EEF2K (human); compound 10.0 µM): 69%
- residual activity (EEF2K (human); compound 50.0 µM): 87%
- residual activity (EPHB4 (human)): 99%
- residual activity (ERBB4 (human)): 59%
- residual activity (FGFR1 (human)): 85%
- residual activity (GSK3B (human); compound 1.0 µM): 100%
- residual activity (GSK3B (human); compound 10.0 µM): 80%
- residual activity (GSK3B (human); compound 50.0 µM): 37%
- residual activity (HIPK3 (human); compound 1.0 µM): 93%
- residual activity (HIPK3 (human); compound 10.0 µM): 41%
- residual activity (HIPK3 (human); compound 50.0 µM): 12%
- residual activity (IGF1R (human)): 59%
- residual activity (IKBKE (human)): 59%
- residual activity (MAP2K2 (human)): 91%
- residual activity (MAP2K6 (human)): 87%
- residual activity (MAP3K5 (human)): 77%
- residual activity (MAPK12 (human); compound 1.0 µM): 106%
- residual activity (MAPK12 (human); compound 10.0 µM): 78%
- residual activity (MAPK12 (human); compound 50.0 µM): 65%
- residual activity (MAPK13 (human); compound 1.0 µM): 95%
- residual activity (MAPK13 (human); compound 10.0 µM): 91%
- residual activity (MAPK13 (human); compound 50.0 µM): 72%
- residual activity (MAPK3 (human); compound 1.0 µM): 101%
- residual activity (MAPK3 (human); compound 10.0 µM): 88%
- residual activity (MAPK3 (human); compound 50.0 µM): 92%
- residual activity (MAPK9 (human); compound 1.0 µM): 95%
- residual activity (MAPK9 (human); compound 10.0 µM): 86%
- residual activity (MAPK9 (human); compound 50.0 µM): 103%
- residual activity (MAPKAPK2 (human); compound 1.0 µM): 118%
- residual activity (MAPKAPK2 (human); compound 10.0 µM): 88%
- residual activity (MAPKAPK2 (human); compound 50.0 µM): 71%
- residual activity (MAPKAPK5 (human); compound 1.0 µM): 105%
- residual activity (MAPKAPK5 (human); compound 10.0 µM): 85%
- residual activity (MAPKAPK5 (human); compound 50.0 µM): 56%
- residual activity (MARK1 (human)): 96%
- residual activity (MELK (human); compound 1.0 µM): 49%
- residual activity (MELK (human); compound 10.0 µM): 50%
- residual activity (MELK (human); compound 50.0 µM): 8%
- residual activity (MKNK1 (human); compound 1.0 µM): 102%
- residual activity (MKNK1 (human); compound 10.0 µM): 66%
- residual activity (MKNK1 (human); compound 50.0 µM): 125%
- residual activity (PAK7 (human); compound 1.0 µM): 102%
- residual activity (PAK7 (human); compound 10.0 µM): 83%
- residual activity (PAK7 (human); compound 50.0 µM): 75%
- residual activity (PHKG1 (human); compound 1.0 µM): 58%
- residual activity (PHKG1 (human); compound 10.0 µM): 21%
- residual activity (PHKG1 (human); compound 50.0 µM): 23%
- residual activity (PIM1 (human); compound 1.0 µM): 50%
- residual activity (PIM1 (human); compound 10.0 µM): 30%
- residual activity (PIM1 (human); compound 50.0 µM): 4%
- residual activity (PIM2 (human); compound 1.0 µM): 78%
- residual activity (PIM2 (human); compound 10.0 µM): 37%
- residual activity (PIM2 (human); compound 50.0 µM): 27%
- residual activity (PIM3 (human); compound 1.0 µM): 48%
- residual activity (PIM3 (human); compound 10.0 µM): 44%
- residual activity (PIM3 (human); compound 50.0 µM): 2%
- residual activity (PRKAA1 or PRKAA2 (rat); compound 1.0 µM): 103%
- residual activity (PRKAA1 or PRKAA2 (rat); compound 10.0 µM): 73%
- residual activity (PRKAA1 or PRKAA2 (rat); compound 50.0 µM): 16%
- residual activity (PRKACA (human); compound 1.0 µM): 106%
- residual activity (PRKACA (human); compound 10.0 µM): 101%
- residual activity (PRKACA (human); compound 50.0 µM): 91%
- residual activity (PRKCZ (human); compound 1.0 µM): 128%
- residual activity (PRKCZ (human); compound 10.0 µM): 105%
- residual activity (PRKCZ (human); compound 50.0 µM): 99%
- residual activity ([1]; compound 1.0 µM): 79%
- residual activity ([1]; compound 10.0 µM): 94%
- residual activity ([1]; compound 50.0 µM): 23%
- residual activity (STK3 (human); compound 1.0 µM): 84%
- residual activity (STK3 (human); compound 10.0 µM): 69%
- residual activity (STK3 (human); compound 50.0 µM): 28%
- residual activity (SYK (human)): 92%
Structure (SMILES): Oc1ccc(/C=C/c2cc(O)cc(O)c2)cc1
